Reference: US8343923B2, “Use of notch signaling regulators for modulating osteogenesis” (Washington University, priority 2007, dated 2013)

How the values were obtained:
Type in all cases: cell-based, mouse
wild type BMSCs = assay: AP quantitative assay for high-density wild type BMSCs cultures in osteogenic medium; details: wild type BMSCs at higher density under osteogenic conditions, with versus without DAPT; p<0.05
Procedure: FIG. 8G is representative of “type II” CFU-Fs stained for AP. FIG. 8H illustrates an AP quantitative assay for high-density wild type BMSCs cultures in osteogenic medium with or without DAPT. (*: p<0.05).
Cell cultures. Bone marrow harvests and high-density cultures were done as described in the art. For CFU-F assays, single-cell suspension of nucleated bone marrow cells were seeded at 3×10^6 on T25 flasks and cultured in DMEM (Invitrogen) containing 20% lot-selected FBS (Hyclone) and 1-Thioglycerol (Sigma) for 11-14 days without change of medium. For CFU-F assays, colonies with more than 50 small, round or spindle-shaped cells in direct contact with each other were scored as “type I” CFU-Fs. Clusters with more than 100 cells including large cells with multiple processes were counted as “type II” CFU-Fs. Differentiation of BMSCs was induced by either osteogenic (50 μg/ml ascorbic acid, 50 mM β-glycerol-2-phosphate) or adipogenic (0.5 μMIBMX, 60 μM indomethacine, 0.5 μM hydrocortisone) DMEM containing 10% FBS (Atlas). Primary osteoblasts were isolated from long bones by incubating cleaned small bone chips to allow cells to migrate onto culture dishes. NICD was detected by Western analyses using a specific antibody (Cell Signaling).
It was also assessed whether Notch signaling could directly control bone marrow mesenchymal progenitors and their differentiation. […]

[1] = test system: bone marrow mesenchymal progenitors (CFU-Fs) in wild type BMSCs; assay: CFU-F assay of wild type BMSCs in the presence or absence of DAPT
Source text: FIG. 8B depicts AP staining after 8 days in osteogenic medium following CFU-F assays. FIG. 8C illustrates AP quantitative assay for high-density BMSCs cultures in osteogenic medium. FIG. 8D is phase-contrast pictures of high-density BMSCs cultured in adipogenic medium. Note the lipid droplets in wild type cells. […] The arrow denotes a typical “type I” CFU-F. Cell cultures. Bone marrow harvests and high-density cultures were done as described in the art. For CFU-F assays, single-cell suspension of nucleated bone marrow cells were seeded at 3×10^6 on T25 flasks and cultured in DMEM (Invitrogen) containing 20% lot-selected FBS (Hyclone) and 1-Thioglycerol (Sigma) for 11-14 days without change of medium. For CFU-F assays, colonies with more than 50 small, round or spindle-shaped cells in direct contact with each other were scored as “type I” CFU-Fs. Clusters with more than 100 cells including large cells with multiple processes were counted as “type II” CFU-Fs. Differentiation of BMSCs was induced by either osteogenic (50 μg/ml ascorbic acid, 50 mM β-glycerol-2-phosphate) or adipogenic (0.5 μMIBMX, 60 μM indomethacine, 0.5 μM hydrocortisone) DMEM containing 10% FBS (Atlas). […] NICD was detected by Western analyses using a specific antibody (Cell Signaling). […] It was also assessed whether Notch signaling could directly control bone marrow mesenchymal progenitors and their differentiation. […]

[2] = test system: "type II" CFU-Fs from wild type BMSCs; assay: AP staining immediately following CFU-F assays; details: assayed directly for AP activity without further culture in osteogenic conditions; DAPT-treated samples
Procedure: FIG. 8G is representative of “type II” CFU-Fs stained for AP. FIG. 8H illustrates an AP quantitative assay for high-density wild type BMSCs cultures in osteogenic medium with or without DAPT. (*: p<0.05). Cell cultures. Bone marrow harvests and high-density cultures were done as described in the art. For CFU-F assays, single-cell suspension of nucleated bone marrow cells were seeded at 3×10^6 on T25 flasks and cultured in DMEM (Invitrogen) containing 20% lot-selected FBS (Hyclone) and 1-Thioglycerol (Sigma) for 11-14 days without change of medium. For CFU-F assays, colonies with more than 50 small, round or spindle-shaped cells in direct contact with each other were scored as “type I” CFU-Fs. Clusters with more than 100 cells including large cells with multiple processes were counted as “type II” CFU-Fs. Differentiation of BMSCs was induced by either osteogenic (50 μg/ml ascorbic acid, 50 mM β-glycerol-2-phosphate) or adipogenic (0.5 μMIBMX, 60 μM indomethacine, 0.5 μM hydrocortisone) DMEM containing 10% FBS (Atlas). Primary osteoblasts were isolated from long bones by incubating cleaned small bone chips to allow cells to migrate onto culture dishes. NICD was detected by Western analyses using a specific antibody (Cell Signaling). It was also assessed whether Notch signaling could directly control bone marrow mesenchymal progenitors and their differentiation. […]

C[C@H](NC(=O)Cc1cc(F)cc(F)c1)C(=O)N[C@H](C(=O)OC(C)(C)C)c1ccccc1 [DAPT, N—[N-(3,5-Difluorophenacetyl)-L-alanyl]-S-phenylglycine t-butyl ester]
AP expression (wild type BMSCs): significantly increased
number of "type II" CFU-Fs ([1]; 1 μM DAPT, number not altered versus untreated): ~20 per 106 marrow cells
effect on "type I" CFU-Fs ([1]; low-density culture, 1 μM DAPT (FIG. 8 legend)): completely eliminated
AP staining of "type II" CFU-Fs [2]: nearly all “type II” CFU-Fs from the DAPT-treated samples stained strongly positive
